Reference: patent US20240239786A1, “COMPOSITIONS AND METHODS FOR THE TREATMENT AND PREVENTION OF CANCER” (Yale University, priority 2021, published 2024)

Key:
[1] = test system: PEO1 cells; assay: Caspase 3/7 assay, PEO1; type: cell-based; details: 50 μM olaparib, 24 hr
Procedure: Cells were pre-treated with 30 μM DB4 for 1 hr and then treated with various concentrations of olaparib for 72 hr. Cell survival was determined by MTS cytotoxicity assay. Data are means±SD (N=3-4). […] EOB calculation was used to quantify the synergy of the combination of DB4 and various concentrations of olaparib in PEO1 or PEO4 cells as shown in FIG. 8A. EOB>0, synergism; EOB=0, additivity; EOB<0, antagonism. […] Cells were pre-treated with 30 μM DB4-F for 1 hr and then treated with various concentrations of olaparib for 72 hr. Cell survival was determined by MTS cytotoxicity assay. Data are means±SD (N=3-4). […] EOB calculation was used to quantify the synergy of the combination of DB4-F and various concentrations of olaparib in PEO1 or PEO4 cells as shown in FIG. 8B. […] Cell survival was determined by MTS cytotoxicity assay. […] Caspase 3/7 activity was expressed as RLU per μg/μl protein. […] Caspase 3/7 activity was expressed as RLU per μg/μl protein. […] Cells were treated and caspase 3/7 activity was measured as described in FIG. 8G and FIG. 8H.
Furthermore, the effects of DB4 on olaparib-induced apoptosis at 24 hr were evaluated. […]
The assay was performed as described previously (Lin Z P et al., 2018, PLOS One, 13:e0207399). […] Total protein concentration of cell lysates was determined as described above. Caspase 3/7 activity was expressed as luminescence units (RLU) per μg/μL protein for each sample.

[2] = test system: PEO1 cells; assay: Reversal of RNR inhibition by supplementing deoxyribonucleosides (MTS); type: cell-based; details: addition of dA plus dG, or all dNs, 72 hr
Procedure: FIG. 2, comprising FIG. 2A through FIG. 2F, depicts representative results of follow-up assays of in silico hit compounds in PEO1 and PEO4 cells. FIG. 2A depicts representative results of cytotoxicity assays on selected 25 in silico hit compounds in PEO1 and PEO4 cells. Cells were plated for 24 hr and then treated with 50 μM compounds for 72 hr. For a positive control, cells were treated with 1 μM triapine for 72 hr. The percentage of cell survival was determined by the MTS cytotoxicity assay. […] Cells were treated with 50 μM compounds or 1 μM triapine for 24 hr. During the last hour, cells were pulse-labeled with EdU, stained with the Click-iT EdU Alexa Fluor 488 Assay Kit, counterstained with 7-AAD, and subsequently analyzed by flow cytometry. EdU-positive cells were gated to determine the percentage of the S phase cell population. […] During the last hour, cells were pulse-labeled with EdU, stained with the Click-iT EdU Alexa Fluor 488 Assay Kit, counterstained with 7-AAD, and subsequently analyzed by flow cytometry. […] The percentages of DNA synthesis in cells treated with each of 10 compounds and triapine relative to the DMSO-treated control is calculated and shown. […] Cells were extracted with 65% methanol for determination of each of dNTPs expressed as pmole/10^6 cells. […] The percentage of cell survival was determined by the MTS cytotoxicity assay. […]

| SMILES | caspase 3/7 activity, olaparib alone [1] | reversal of inhibitory effects on cell survival by dNs [2] | effect on olaparib-induced caspase 3/7 activity [1] |
| --- | --- | --- | --- |
| O=C(c1cc(Cc2n[nH]c(=O)c3ccccc23)ccc1F)N1CCN(C(=O)C2CC2)CC1 [olaparib, reference compound] | pronounced increase in caspase 3/7 activity |  |  |
| NC(=S)NN=Cc1ncccc1N [triapine, 3-aminopyridine-2-carboxaldehyde-thiosemicarbazone, reference compound] |  | partially reversed |  |
| C=CCn1c(SCc2cccc(Cl)c2)nnc1C1CCN(Cc2nc3ccccc3s2)CC1 [DB4, 2-[(4-{4-allyl-5-[(3-chlorobenzyl)thio]-4H-1,2,4-triazol-3-yl}-1-piperidinyl)methyl]-1,3-benzothiazole] |  | partially reversed | failed to enhance |
